row,melting point,Structure (SMILES)
1,219 to 221 °C,"c1ccc(-c2nc(Nc3nccs3)c3ccccc3n2)cc1 [II-34, (2-Phenyl-quinazolin-4-yl)-(thiazol-2-yl)-amine]"
2,215 to 216 °C,"Cc1cnc(Nc2nc(-c3ccccc3)nc3ccccc23)s1 [II-35, (5-Methyl-thiazol-2-yl)-(2-phenyl-quinazolin-4-yl)-amine]"
3,161 to 162 °C,"c1ccc(-c2nc(Nc3ncc(C4CC4)s3)c3ccccc3n2)cc1 [II-36, (5-Cyclopropyl-thiazol-2-yl)-(2-phenyl-quinazolin-4-yl)-amine]"
